Laboratory results published in patent US20260209201A1, “TRISULFIDE COMPOUND AND CLATHRATE THEREOF” (Kyowa Pharma Chemical Co., Ltd., priority 2022, published 2026).

Assay: Thermal stability test (Test Example 1): heating at 100° C. for 5 hours, residual rate by HPLC
Assay type: physicochemical
Conditions: heated at 100° C.; for residual rate: amount before heating set at 100%
Protocol: The thermal stability of (R)-α-lipoic acid, (R)-lipoic acid trisulfide, and compound (12-1) was evaluated as follows. Each compound was placed in a round-bottom flask and heated at 100° C. for 5 hours. Every hour, a sample was taken from the flask, dissolved in a methylene chloride/methanol mixture (1:1), and subjected to HPLC. The residual rate over time was calculated from the area values of each component.
In FIG. 1, the residual rate on the vertical axis was calculated from the degree of decomposition over time for each sample, with the amount before heating set at 100%. […] In addition, (R)-α-lipoic acid and (R)-lipoic acid trisulfide melted immediately after the start of heating, and insoluble by-products were formed. […] This is presumed to be due to the high melting point of compound (12-1) and suppression of intermolecular polymerization. From the above, it was confirmed that the compound or salt represented by Formula (1) has higher thermal stability than (R)-α-lipoic acid and (R)-lipoic acid trisulfide.

Compound | residual rate (after 5 hours) | decomposition (at 2 hours) | residual rate (at 1 hour)
O=C(O)CCCC[C@@H]1CCSSS1 [(R)-lipoic acid trisulfide] | about 70% | no decomposition | 
O=C(O)CCCC[C@@H]1CCSS1 [(R)-α-lipoic acid] | about 50% |  | below 60%
O=C(CCCC[C@@H]1CCSSS1)N1CCN(C(=O)CCCC[C@@H]2CCSSS2)CC1 [Compound (12-1)] | ≥ 95% |  | 
